Source: ChEMBL document CHEMBL2150927, “5-Amino-oxazepine and 5-Amino-thiazepine Compounds as β-Secretase Antagonists and Methods of Use: Patent Highlight” (ACS Med Chem Lett, 2012)
pIC50: −log10 of the molar value.

Columns and labels:
Beta-secretase 1 [1] = target: T1, Beta-secretase 1 (Homo sapiens, UniProt P56817); assay: Inhibition of BACE1 expressed in HEK cells by cell-based assay; parameters: species or system HEK293
Beta-secretase 1 [2] = target: T1, Beta-secretase 1; assay: Inhibition of BACE1 by FRET assay

T1 sequence (P56817 whole entry): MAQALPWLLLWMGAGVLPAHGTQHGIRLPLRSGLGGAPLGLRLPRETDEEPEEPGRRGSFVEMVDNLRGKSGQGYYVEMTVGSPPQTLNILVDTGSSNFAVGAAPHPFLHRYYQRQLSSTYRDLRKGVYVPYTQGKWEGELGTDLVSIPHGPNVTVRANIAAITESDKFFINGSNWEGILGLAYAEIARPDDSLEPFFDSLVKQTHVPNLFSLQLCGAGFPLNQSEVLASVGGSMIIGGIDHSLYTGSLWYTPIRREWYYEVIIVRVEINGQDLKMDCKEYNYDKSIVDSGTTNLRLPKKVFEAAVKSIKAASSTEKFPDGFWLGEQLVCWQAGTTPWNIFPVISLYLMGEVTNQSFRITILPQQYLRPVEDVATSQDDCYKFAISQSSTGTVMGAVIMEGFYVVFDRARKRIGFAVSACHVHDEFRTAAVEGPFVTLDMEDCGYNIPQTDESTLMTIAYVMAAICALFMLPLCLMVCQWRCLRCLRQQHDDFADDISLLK

Question: What does the source list for `NC1=N[C@@]2(CCOC1)c1cc(-c3cccnc3F)ccc1Oc1cnc(-c3ccc(F)c(F)c3)cc12`?
Answer: pIC50 (Beta-secretase 1 [1]): 7.72; pIC50 (Beta-secretase 1 [2]): 8.70

Question: How did the pIC50 (Beta-secretase 1 [1]) turn out when `NC1=N[C@@]2(COCC1)c1cc(-c3cccnc3F)ccc1Oc1cnc(-c3ccnc(F)c3)cc12` was run?
Answer: 9.00

Question: `CC(C)(C)COc1cc(F)c2c(c1)[C@]1(COCCC(N)=N1)c1cc(-c3cccnc3F)ccc1O2` was tested. Which pIC50 (Beta-secretase 1 [1]) did it give?
Answer: 8.15

Question: With `NC1=N[C@@]2(CCOC1)c1cc(-c3cccnc3F)ccc1Oc1cnc(C3CCC(F)(F)C3)cc12` (stereo partly specified) as the compound, how does the pIC50 (Beta-secretase 1 [1]) read?
Answer: 8.40

Question: And the pIC50 (Beta-secretase 1 [2])?
Answer: 8.52
